From PubChem BioAssay AID226 (DTP/NCI, 2004) come the findings set out here.

Values joined by “and” are separate entries in the source; they are usually repeats but may differ in a detail not shown here. Equal values may be shown once. Toxic doses and inconclusive results are not listed.

This test has as its system B6C3F1 mice, intracerebral ependymoblastoma, median survival T/C. The test is described as follows: NCI In Vivo Anticancer Drug Screen. Data for tumor model Ependymoblastoma (intracerebral) in B6C3F1 mice. Particulars: endpoint: median survival time, higher = longer survival. As for the experimental part: The antitumor activity of compounds was measured in mice bearing transplantable tumors. Survival or tumor size were measured and the results are expressed as the measurement made in the treated group (T) divided by the measurement made in the vehicle treated control group (C). The tumor model used in this assay is Ependymoblastoma (intracerebral) in B6C3F1 mice

Where [1] appears, read: dose: 4.0 mg/kg/injection, schedule: Q01DX005 (ip), vehicle: saline with Tween-80.
The mark [2] stands for this setting: dose: 8.0 mg/kg/injection, schedule: Q01DX005 (ip), vehicle: saline with Tween-80.
Setting [3] is: dose: 32.0 mg/kg/injection, schedule: Q01DX005 (ip), vehicle: saline.
[4] abbreviates: dose: 0.25 mg/kg/injection, schedule: Q01DX005 (ip), vehicle: saline.
Setting [5] is: dose: 0.5 mg/kg/injection, schedule: Q01DX005 (ip), vehicle: saline.
The mark [6] stands for this setting: dose: 2.0 mg/kg/injection, schedule: Q01DX005 (ip), vehicle: saline.

For `O=C1c2ccccc2C(=O)c2c(NCCNCCO)ccc(NCCNCCO)c21`, the T/C is 107 % of control (dose: 1.0 mg/kg/injection, schedule: Q04DX003 (ip), vehicle: Klucel (hydroxypropylcellulose) (HPC)); 102 % of control (dose: 1.0 mg/kg/injection, schedule: Q04DX003 (ip), vehicle: water); 102 % of control [middle of 4 runs] (dose: 2.0 mg/kg/injection, schedule: Q01DX005 (ip), vehicle: saline with Tween-80); 97 % of control (dose: 2.0 mg/kg/injection, schedule: Q04DX003 (ip), vehicle: Klucel (hydroxypropylcellulose) (HPC)); 101 % of control (dose: 2.0 mg/kg/injection, schedule: Q04DX003 (ip), vehicle: water); 101 % of control [middle of 4 runs] under setting [1]. The T/C (dose: 4.0 mg/kg/injection, schedule: Q04DX003 (ip), vehicle: Klucel (hydroxypropylcellulose) (HPC)) was 101 % of control; the T/C (dose: 4.0 mg/kg/injection, schedule: Q04DX003 (ip), vehicle: water) is 92 % of control; the T/C under setting [2] is 109 % of control [middle of 4 runs]; the T/C (dose: 8.0 mg/kg/injection, schedule: Q04DX003 (ip), vehicle: Klucel (hydroxypropylcellulose) (HPC)) was 110 % of control; the T/C (dose: 8.0 mg/kg/injection, schedule: Q04DX003 (ip), vehicle: water) is 102 % of control; the T/C (dose: 16.0 mg/kg/injection, schedule: Q01DX005 (ip), vehicle: saline with Tween-80) was 113 % of control [middle of 4 runs]. The T/C (dose: 16.0 mg/kg/injection, schedule: Q04DX003 (ip), vehicle: Klucel (hydroxypropylcellulose) (HPC)) was 108 % of control; the T/C (dose: 16.0 mg/kg/injection, schedule: Q04DX003 (ip), vehicle: water) was 92 % of control; the T/C (dose: 32.0 mg/kg/injection, schedule: Q01DX005 (ip), vehicle: saline with Tween-80) is 94 % of control and 110 % of control and 116 % of control; the T/C (dose: 32.0 mg/kg/injection, schedule: Q04DX003 (ip), vehicle: Klucel (hydroxypropylcellulose) (HPC)) was 108 % of control; the T/C (dose: 32.0 mg/kg/injection, schedule: Q04DX003 (ip), vehicle: water) was 94 % of control; the T/C (dose: 64.0 mg/kg/injection, schedule: Q04DX003 (ip), vehicle: Klucel (hydroxypropylcellulose) (HPC)) is 97 % of control. The T/C (dose: 128.0 mg/kg/injection, schedule: Q04DX003 (ip), vehicle: Klucel (hydroxypropylcellulose) (HPC)) was 92 % of control.

`CN(C)/N=N/c1[nH]ncc1C(N)=O`: the T/C is, setting by setting: under setting [3], 150 % of control; (dose: 64.0 mg/kg/injection, schedule: Q01DX005 (ip), vehicle: saline) 176 % of control; (dose: 128.0 mg/kg/injection, schedule: Q01DX005 (ip), vehicle: saline with Tween-80) 151 % of control; (dose: 128.0 mg/kg/injection, schedule: Q01DX005 (ip), vehicle: saline) 155 % of control; (dose: 256.0 mg/kg/injection, schedule: Q01DX005 (ip), vehicle: saline) 96 % of control.

Consider `CCCN(C)/N=N/c1nc[nH]c1C(N)=O`, for which the T/C runs as follows: under setting [1], 112 % of control; under setting [2], 124 % of control.

Turning to `COc1ccc2c(c1O)-c1cccc3c1[C@@H](C2)N(CCCl)CC3`, the T/C runs as follows: under setting [4], 105 % of control; under setting [5], 100 % of control; (dose: 1.0 mg/kg/injection, schedule: Q01DX005 (ip), vehicle: saline) 96 % of control; under setting [6], 99 % of control and 87 % of control; (dose: 4.0 mg/kg/injection, schedule: Q01DX005 (ip), vehicle: Klucel (hydroxypropylcellulose) (HPC)) 98 % of control; (dose: 4.0 mg/kg/injection, schedule: Q01DX005 (ip), vehicle: saline) 104 % of control. Further, the T/C by setting is: (dose: 8.0 mg/kg/injection, schedule: Q01DX005 (ip), vehicle: Klucel (hydroxypropylcellulose) (HPC)) 98 % of control; (dose: 8.0 mg/kg/injection, schedule: Q01DX005 (ip), vehicle: saline) 93 % of control; (dose: 16.0 mg/kg/injection, schedule: Q01DX005 (ip), vehicle: saline) 88 % of control; under setting [3], 86 % of control.

As to `COc1cc([C@@H]2c3cc4c(cc3[C@@H](OC3OC5CO[C@@H](c6cccs6)OC5C(O)C3O)[C@H]3COC(=O)[C@H]23)OCO4)cc(OC)c1O` (stereo partly drawn), the T/C was 103 % of control under setting [4]; 90 % of control under setting [5]; 92 % of control (dose: 1.0 mg/kg/injection, schedule: Q12HX006 (ip), vehicle: saline); 118 % of control under setting [6]; 122 % of control (dose: 2.0 mg/kg/injection, schedule: Q01DX005 (oral), vehicle: saline); 93 % of control (dose: 2.0 mg/kg/injection, schedule: Q12HX002 (ip), vehicle: saline). In addition, the T/C (dose: 2.0 mg/kg/injection, schedule: Q12HX006 (ip), vehicle: saline) is 119 % of control; the T/C (dose: 4.0 mg/kg/injection, schedule: Q01DX001 (ip), vehicle: saline) was 100 % of control and 105 % of control; the T/C (dose: 4.0 mg/kg/injection, schedule: Q01DX005 (oral), vehicle: saline) was 124 % of control; the T/C (dose: 4.0 mg/kg/injection, schedule: Q12HX002 (ip), vehicle: saline) is 93 % of control; the T/C (dose: 4.0 mg/kg/injection, schedule: Q12HX006 (ip), vehicle: saline) is 119 % of control; the T/C (dose: 8.0 mg/kg/injection, schedule: Q01DX001 (ip), vehicle: saline) was 110 % of control and 111 % of control and 118 % of control. The T/C is, setting by setting: (dose: 8.0 mg/kg/injection, schedule: Q01DX005 (oral), vehicle: saline) 113 % of control; (dose: 8.0 mg/kg/injection, schedule: Q12HX002 (ip), vehicle: saline) 90 % of control; (dose: 8.0 mg/kg/injection, schedule: Q12HX006 (ip), vehicle: saline) 122 % of control; (dose: 16.0 mg/kg/injection, schedule: Q01DX001 (ip), vehicle: saline) 112 % of control and 115 % of control and 118 % of control; (dose: 16.0 mg/kg/injection, schedule: Q01DX001 (oral), vehicle: saline) 94 % of control and 101 % of control; (dose: 16.0 mg/kg/injection, schedule: Q12HX002 (ip), vehicle: saline) 93 % of control. The T/C was 104 % of control and 109 % of control and 117 % of control (dose: 32.0 mg/kg/injection, schedule: Q01DX001 (ip), vehicle: saline); 109 % of control and 110 % of control (2×) (dose: 32.0 mg/kg/injection, schedule: Q01DX001 (oral), vehicle: saline); 104 % of control and 109 % of control and 115 % of control (dose: 64.0 mg/kg/injection, schedule: Q01DX001 (oral), vehicle: saline); 97 % of control and 109 % of control (dose: 128.0 mg/kg/injection, schedule: Q01DX001 (oral), vehicle: saline).

With `Cn1cnc([N+](=O)[O-])c1Sc1nc(N)nc2c1ncn2C1OC(CO)C(O)C1O` (stereo not drawn), the T/C runs as follows: (dose: 6.25 mg/kg/injection, schedule: Q01DX005 (ip), vehicle: suspension in saline) 109 % of control; (dose: 12.5 mg/kg/injection, schedule: Q01DX005 (ip), vehicle: suspension in saline) 115 % of control; (dose: 25.0 mg/kg/injection, schedule: Q01DX005 (ip), vehicle: suspension in saline) 107 % of control.

`O=C(O)C1(C(=O)O)CCC1.[NH2-].[NH2-].[Pt+2]`: the T/C runs as follows: (dose: 16.0 mg/kg/injection, schedule: Q01DX005 (ip), vehicle: dextrose) 110 % of control and 118 % of control; (dose: 32.0 mg/kg/injection, schedule: Q01DX005 (ip), vehicle: dextrose) 119 % of control and 120 % of control.
